What all share (assay type): cell-based
One experiment has as its system NCI-H358 cells. The experiment can be described thus: Cell viability assay (Cell Counting Kit-8), KRAS G12C. To be noted: Homo sapiens, 72 hrs incubation, CCK-8. As for the experimental part: (§1) The purpose of this cellular assay was to determine the effects of test compounds on the proliferation of human cancer cell lines NCI-H358 (ATCC-CRL5807) cells, AGS (ATCC-CRL-1739) cells, SW620 (ATCC-CCL-227) over a 3-day treatment period by quantifying the amount of NADPH present at endpoint using Cell Counting Kit-8.
(§2) Cells were seeded at 5,000 cells/well (NCI-H358), 2,000 cells/well (AGS) 2,000 cells/well (SW620) in 96-well assay plates (Corning-3699) and incubated overnight. On the day of the assay, diluted compounds were then added in a final concentration of 0.5% DMSO. After 72 hrs incubation, a tenth of the volume of cell counting kit 8 (Dnjindo-CK04) was added into each well. Read the signal (OD450 minus OD650) using EnVision after 2 hrs incubation. IC50 was determined by fitting a 4-parameter sigmoidal concentration response model.

In the next experiment the test system is AGS cells. Nature of the experiment: Cell viability assay (Cell Counting Kit-8), KRAS G12D. To be noted: Homo sapiens, 72 hrs incubation, CCK-8. As for the experimental part: as §1, §2
In general terms: Tetrazolium assays rely on reduction of a dye to a coloured formazan, in cell work by metabolically active cells.

For another experiment, the system named is SW620 cells. Nature of the experiment: Cell viability assay (Cell Counting Kit-8), KRAS G12V. To be noted: Homo sapiens, SW-620, 72 hrs incubation, CCK-8. As for the experimental part:
as §1, §2

For experiment [1], the system named is phosphorylation of ERK, KRAS G12C in NCI-H358 cells. Nature of the experiment: pERK inhibition assay, KRAS G12C. To be noted: Homo sapiens, 4 hours of incubation. As for the experimental part:
(§3) This assay is to measure the ability of test compounds in inhibiting the phosphorylation of ERK, the downstream signaling of KRAS G12C in NCI-H358 cells, KRAS G12D in AGS cells, and KRAS G12V in SW620. NCI-H358 (ATCC-CRL5807) cells, AGS (ATCC-CRL-1739) cells, SW620 (ATCC-CCL-227) cells were all grown and maintained using RPMI-1640 medium (Thermo Fisher Scientific) with 10% fetal bovine serum and 1% penicillin/streptomycin. On the day prior to compound addition, cells were plated in tissue culture-treated 96 well plates (Corning-3699) at a density of 30,000 cell/well, 20,000 cell/well, 30,000 cell/well for NCI-H358, AGS and SW620 respectively, and allowed for attachment overnight. Diluted compounds were then added in a final concentration of 0.5% DMSO. After 4 hours of incubation, the medium was removed, 100 μL of 4% formaldehyde was added, and the assay plates were incubated at room temperature for 20 minutes. The plates were then washed once with phosphate buffered saline (PBS), and permeabilized with 100 μL of chilled methanol for 10 minutes. Non-specific antibody binding to the plates was blocked using 50 μL 1×BSA blocking buffer (Thermo-37520, 10-fold dilution by Phosphate-Buffered Saline Tween (PBST) for at least 1 hour at room temperature.
(§4) The amount of phosphor-ERK was determined using an antibody specific for phosphorylated form of ERK. Primary antibody (pERK, CST-4370, Cell Signaling Technology) was diluted 1:300 in blocking buffer, with 50 μL aliquoted to each well, and incubated overnight at 4° C. Cells was washed five times for 5 minutes with PBST. Secondary antibody (HRP-linked anti-rabbit IgG, CST-7074, Cell Signaling Technology) was diluted 1:1000 in blocking buffer, and 50 μL was added to each well and incubated 1-2 hrs at room temperature. Cells was washed 5 times for 5 minutes with PBST, 100 μL TMB ELISA substrate (abcam-ab171523) were added and gently shake for 20 minutes. 50 μL stop solution (abcam-ab171529) were added, and then read the signal (OD450) by EnVision.
(§5) IC50 was determined by fitting a 4-parameter sigmoidal concentration response model.

Experiment [2] concerns phosphorylation of ERK, KRAS G12D in AGS cells. Nature of the experiment: pERK inhibition assay, KRAS G12D. The conditions noted are these: Homo sapiens, 4 hours of incubation. As for the experimental part:
as §3, §4, §5

Experiment [3] has as its system phosphorylation of ERK, KRAS G12V in SW620. Nature of the experiment: pERK inhibition assay, KRAS G12V. The conditions noted are these: Homo sapiens, SW-620; SW620 cells, 4 hours of incubation. As for the experimental part:
as §3, §4, §5

Each structure is given as a SMILES string.

The IC50 is the concentration needed to halve the response being measured. A higher IC50 goes with weaker potency in that assay. As to `CCn1c(-c2cc(N3CCOCC3)cnc2[C@H](C)OC)c2c3cc(c(F)cc31)-c1csc(n1)C[C@H](NC(=O)[C@H]1C[C@@H]1C(F)F)C(=O)N1CCC[C@H](N1)C(=O)OCC(C)(C)C2` (atropisomer, axis not shown; (M)) [Example 11, (1S,2S)-2-(difluoromethyl)-N-[(7S,13S)-21-ethyl-24-fluoro-(20M)-20-[2-[(1S)-1-methoxyethyl]-5-morpholino-3-pyridyl]-17,17-dimethyl-8,14-dioxo-15-oxa-4-thia-9,21,27,28-tetrazapentacyclo[17.5.2.1^2,5.1^9,13.0^22,26]octacosa-1(25),2,5(28),19,22(26),23-hexaen-7-yl]cyclopropanecarboxamide], the IC50 came to 0.005 µM with NCI-H358 cells; 0.111 µM with AGS cells; 0.007 µM with SW620 cells; 0.021 µM in experiment [1]; 0.028 µM in experiment [2]; 0.007 µM in experiment [3].
For the molecule `CO[C@@H](C)c1ncc(N2CCOCC2)cc1-c1c2c3cc(c(F)cc3n1CC(F)(F)F)-c1csc(n1)C[C@H](NC(=O)[C@H]1C[C@@H]1C)C(=O)N1CCC[C@H](N1)C(=O)OCC(C)(C)C2` (atropisomer, axis not shown; (M)) [Example 12, (1S,2S)—N-[(7S,13S)-24-fluoro-(20M)-20-[2-[(1S)-1-methoxyethyl]-5-morpholino-3-pyridyl]-17,17-dimethyl-8,14-dioxo-21-(2,2,2-trifluoroethyl)-15-oxa-4-thia-9,21,27,28-tetrazapentacyclo[17.5.2.1^2,5.1^9,13.0^22,26]octacosa-1(25),2,5(28),19,22(26),23-hexaen-7-yl]-2-methyl-cyclopropanecarboxamide], the IC50 is 0.011 µM in the experiment on NCI-H358 cells; 0.244 µM in the experiment with AGS cells; 0.016 µM in the experiment on SW620 cells; 0.033 µM in experiment [1]; 0.053 µM in experiment [2]; 0.009 µM in experiment [3].
With `CCn1c(-c2cc(N3CCN(C)CC3)cnc2[C@H](C)OC)c2c3cc(c(F)cc31)-c1csc(n1)C[C@H](NC(=O)[C@H]1C[C@@H]1C#N)C(=O)N1CCC[C@H](N1)C(=O)OCC(C)(C)C2` [Example 5, (1S,2S)-2-cyano-N-[(7S,13S)-21-ethyl-24-fluoro-(20M)-20-[2-[(1S)-1-methoxyethyl]-5-(4-methylpiperazin-1-yl)-3-pyridyl]-17,17-dimethyl-8,14-dioxo-15-oxa-4-thia-9,21,27,28-tetrazapentacyclo[17.5.2.1^2,5.1^9,13.0^22,26]octacosa-1(25),2,5(28),19,22(26),23-hexaen-7-yl]cyclopropanecarboxamide], the IC50 with NCI-H358 cells is 0.023 µM; in the experiment with AGS cells, 0.089 µM; in the experiment on SW620 cells, 0.012 µM; in experiment [1], 0.057 µM; in experiment [2], 0.056 µM; in experiment [3], 0.013 µM.
For the molecule `CCn1c(-c2cc(N3CCN(C)CC3)cnc2[C@H](C)OC)c2c3cc(c(F)cc31)-c1csc(n1)C[C@H](NC(=O)[C@@H]1C[C@H]1C#N)C(=O)N1CCC[C@H](N1)C(=O)OCC(C)(C)C2` [Example 6, (1R,2R)-2-cyano-N-[(7S,13S)-21-ethyl-24-fluoro-(20M)-20-[2-[(1S)-1-methoxyethyl]-5-(4-methylpiperazin-1-yl)-3-pyridyl]-17,17-dimethyl-8,14-dioxo-15-oxa-4-thia-9,21,27,28-tetrazapentacyclo[17.5.2.1^2,5.1^9,13.0^22,26]octacosa-1(25),2,5(28),19,22(26),23-hexaen-7-yl]cyclopropanecarboxamide], the IC50 came out at 0.079 µM in the experiment with NCI-H358 cells; 0.316 µM in the experiment with AGS cells; 0.035 µM in the experiment with SW620 cells; 0.079 µM in experiment [1]; 0.116 µM in experiment [2]; 0.025 µM in experiment [3].

For the origin of these results see patent US20250250284A1, “MACROCYCLE COMPOUNDS USEFUL AS KRAS INHIBITORS” (Hoffmann-La Roche Inc., priority 2022, published 2025).
